From patent publication US20070219155A1, “TREATING TRINUCLEOTIDE REPEAT CONDITIONS” (priority 2006, published 2007)

What was measured:
human HD fibroblasts [1] = test system: human HD fibroblasts
Description: Human HD fibroblasts (Coriell Cell Repositories) were maintained in MEM medium with 20% FBS. Cells were grown until they reached 70% confluence and then treated with the indicated concentrations of H2O2 for 30 min. The cells were washed, the medium was replaced, and the cells were allowed to recover for three days before repeating the treatment one or two more times. After the third treatment, the cells were collected and DNA was isolated. CAG repeat sizing was performed as described below.

[2] = test system: lymphoblast cell lines obtained from HD patients; settings: FIG. 2D
Description: DNA was purified from mouse tissues or cultured human fibroblasts (Kovtun et al., Hum. Mol. Genet., 13:3057-3068 (2004)) and used for PCR amplification of various microsatellites. CAG repeats at the hHD locus were amplified as described previously (Kovtun and McMurray, Nat. Genet., 27:407-411 (2001); Kovtun et al., Hum. Mol. Genet., 13:3057-3068 (2004)). […] One primer in each PCR amplification was labeled with FAM-6, and fluorescent products were analyzed using an ABI prism 3700 DNA analyzer instrument and the GeneMapper software v3 (Applied Biosystems).
It was then determined whether peroxide treatment could directly lead to CAG expansion at the hHD locus in human HD fibroblasts in response to oxidative damage.

human HD fibroblasts [3] = experiment: Comet assay of H2O2-treated cells; settings: cultured cells; FIG. 2F

**Q.** For OO [H2O2, hydrogen peroxide], which cell viability (human HD fibroblasts [1]) is on record?
**A.** did not affect cell viability

**Q.** And the “expansion of CAG repeats at the hHD locus” value (human HD fibroblasts [1]; low (sub-lethal) doses, 30 min treatment repeated up to three times, FIG. 2C)?
**A.** uniformly led to expansion of CAG at intermediate or disease-length alleles

**Q.** And the “expansion of GAA repeats (chromosome 5 locus)” value (human HD fibroblasts [1]; same peroxide-treated cells, FIG. 2E)?
**A.** expansion was not detected

**Q.** What about the “expansion of CAG repeats at the hHD locus” value [2] of the same compound?
**A.** expansions were observed

**Q.** And the “single strand breaks (comet assay)” value (human HD fibroblasts [3])?
**A.** dose-dependent increase in single strand breaks
